Assays:
[1] = tested on: A2058 cells isolated from tumor-bearing mice; assay: Chemosensitization of cultured A2058 cells isolated from xenografts; assay type: cell-based, human; settings: A2058; 72 h-cultured; PL 1 μM, Chemo 0.25 μM PAC.PBP; Pter = in vivo pretreatment
Procedure: FIG. 5. Chemosensitization effect of GSH depletion (A) or sod1-AS (B) in melanoma cells isolated from Pter-treated mice. Melanoma cells were cultured as in FIG. 1C. PAC.PBP (100 ng/ml) was added to the culture flasks 24 h after seeding. […] Data are mean values±SD for 5-6 different experiments (*p<0.01, comparing all experimental conditions vs controls).
FIGS. 18-25. Effect of piperlongumine and I-BET762, as GSH depleting and chemosensitizing agents, in in vitro growing human melanoma, pancreatic, breast, lung, liver, prostate, ovarian, and colorectal cancer cells. Cancer cells, isolated from Pter-treated tumor-bearing mice, were cultured as indicated under Methods. Chemotherapy (0.25 μM PAC.PBP in A2058 melanoma and MDA-MB-231 breast carcinoma cells; 0.125 μM PAC.PBP and 25 μM GTB in AsPC-1 pancreatic cancer cells; 1 μM VRB and 15 μM cisPt in A459 lung carcinoma cells; 0.15 μM DXR in HepG2 hepatocellular carcinoma cells; 15 nM DCT in PC-3 prostate carcinoma cells; 0.15 μM PAC.PBP and 25 μM CarboPt in SK-OV-3 ovarian carcinoma cells; 3 μM 5-FU, 1 μM FA and 0.6 μM IRI in HT-29 colorectal carcinoma cells) was added to the cultured flasks 24 h after seeding. PL (1 μM in A2058 and AsPC-1 cells; 0.5 μM in A549 and HT-29 cells; 0.2 μM in HepG2, PC-3, and SK-OV-3 cells; 0.1 μM in MDA-MB-231 cells) or I-BET762 (0.5 μM in HT-29 cells; 0.2 μM in A2058, AsPC-1, HepG2, PC-3, and SK-OV-3 cells; 0.1 μM in A549 and MDA-MB-231 cells) were added 6 h later. Data are mean values±SD for 4-5 different experiments per cell line (*p<0.05 and **p<0.01, comparing all experimental conditions versus control. PL, piperlongumine; PAC.PBP, paclitaxel protein-bound particles; GTB, gemcitabine; DXR, doxorubicin; VRB, vinorelbin; CisPt, cisplatin; docetaxel, DCT; CarboPt, carboplatin; 5-FU, 5-fluoracil; FA, folinic acid; IRI, irinotecan; 5-FU+FA+IRI=FOLFIRI).
Human A2058, MeWo and MelJuso melanoma cells, and mouse AtT-20 pituitary corticotroph tumor cells were from the American Type Culture Collection (ATCC). Human HEMa-LP epidermal melanocytes were from Life Technologies (Grand Island, N.Y.). Human MDA-MB-231 (triple negative: ER−, PR−, HER2−) and MCF-7 (ER+, PR+, HER2−) breast adenocarcinoma, A549 lung adenocarcinoma (NSCLC), HepG2 hepatocellular carcinoma, LNCaP (AR+) and PC-3 (AR−) prostate adenocarcinoma, SK-OV-3 epithelial ovarian carcinoma, and HT-29 and Caco-2 colorectal carcinoma cells were from the American Type Culture Collection. Cells were grown in Dulbecco's modified Eagle's medium (DMEM) (Invitrogen, San Diego, Calif.), pH 7.4, supplemented with 10% heat-inactivated FCS (Biochrom KG, Berlin, Germany), 100 units/ml penicillin and 100 μg/ml streptomycin. Cells were plated, at a density of 20,000 cells/cm2, and cultured at 37° C. in a humidified atmosphere with 5% CO2. Cells were harvested by incubation for 5 min with 0.05% (w/v) trypsin (Sigma, St. Louis, Mo.) in PBS (10 mM sodium phosphate, 4 mM KCl, 137 mM NaCl), pH 7.4, containing 0.3 mM EDTA, followed by the addition of 10% FCS to inactivate the trypsin. Cell numbers were determined using a Coulter Counter (Coulter Electronic Inc., Miami, Fla.). Cells were allowed to attach for 12 h before any treatment addition. Cellular viability was assessed as previously reported (Mena, S. et al. Clin Cancer Res 13, 2658-2666 (2007)), by measuring trypan blue exclusion and leakage of lactate dehydrogenase activity.
Isolation of Tumor Cells from Mouse Xenografts Using Enzymatic Digestion and a double Ficoll gradient. […]

[2] = tested on: human A375 melanoma; settings: 20 μM Pter, 24 h, in vitro; cited from earlier work

COc1cc(/C=C/c2ccc(O)cc2)cc(OC)c1 [Pter, trans-3,5-dimethoxy-4′-hydroxystilbene]
Viable cells [1]: 1015 ± 144 ×10^6 | decrease in tumor cell viability [2]: approx. 30%

From patent US11179348B2, “Combination comprising pterostilbene for the treatment of cancer” (FUNDACIÓN UNIVERSIDAD CATÓLICA DE VALENCIA SAN VICENTE …, priority 2015, dated 2021)
